Laboratory results reported in patent US10058495B2, “Method of making a skin care product” (The Procter & Gamble Company, priority 2014, dated 2018).
Residues, ends and D or L forms follow the SMILES beside them. *: point of attachment. Palmitoyl = CCCCCCCCCCCCCCCC(=O)*

Assay: Ex vivo skin penetration study (Franz cell)
Assay type: in vitro ADME, human
Details: arrays 1 (uni-directional, 27 mT) and 2 (bi-directional, overall 21 mT) of Table 1 versus other arrays tested; 400 μg/ml in 50:50 PG:PB at pH 4
Procedure: An ex vivo skin penetration study was conducted to compare the ability of different magnetic arrays to enhance penetration of Pal-KTTKS (SEQ ID NO: 1) into the epidermis of human skin. The dermis and epidermis of human skin samples obtained from donors aged 60-65 years were heat separated and the dermis discarded. 20 μL of a Pal-KTTKS (SEQ ID NO: 1) containing composition (400 μg/ml in 50:50 PG:PB at pH 4) was placed on human epidermis in Franz cell. Different magnetic arrays were positioned approximately 1.0 mm above the epidermis samples and moved over the samples at the speed a user might move a cosmetic applicator when applying a skin care product (e.g., about 20-25 cm/sec). Samples were taken and measured at 0, 1, 2, 4, 6, 8, 24 hours. […] For the bi-directional arrays herein, the “1st layer” refers to the layer closest to the skin-contacting surface of the applicator, and the “2nd layer” refers to the layer disposed on the side of the 1st layer opposite the side closest to the skin-contacting surface.

Compound: CCCCCCCCCCCCCCCC(=O)N[C@@H](CCCCN)C(=O)N[C@H](C(=O)N[C@H](C(=O)N[C@@H](CCCCN)C(=O)N[C@@H](CO)C(=O)O)[C@@H](C)O)[C@@H](C)O [Pal-KTTKS, palmitoyl-lysine-threonine-threonine-lysine-serine] (Palmitoyl-KTTKS-OH; C-terminus assumed)
- penetration enhancement of Pal-KTTKS into epidermis: best penetration enhancement
